The source of these data is patent US20250368682A1, “NOVEL POLYPEPTIDE COMPOSITION FOR INTRACELLULAR TRANSFECTION” (AZOTHBIO INC., priority 2022, published 2025).

Format in all cases: cell-based
Data set [1] concerns Jurkat T cells. In words: pEGFP-N3 plasmid DNA delivery, GFP expression by immunoblotting. The conditions noted are these: for GFP expression depending on copy number of NLS: 2, 3 or 4 copies of NLS after 10 leucines; for plasmid DNA delivery efficiency depending on leucine length: 10 or 11 leucines with 2×NLS, same experiment as Example 1-1. The procedure:
Specific sequences thereof are shown in Table 2 below (Peptides 1 to 10). Each of the above peptides at a concentration of 4 μM was mixed with 2 μg of pEGFP-N3 plasmid for 30 minutes in a CO2 incubator at 37° C. After transfection of the plasmids into Jurkat T cells for 30 minutes, the expression of GFP was analyzed by immunoblotting after 24 hours (FIG. 1).
Peptides containing 10 or 11 leucine amino acids and 2×NLS linked thereto were prepared (Peptides 1 and 11), and based on these peptides, the effect of the number of leucine amino acids on the transmission level was further determined. Each of the above peptides was subjected to the same experiment as in Example 1-1, and then the expression of GFP was analyzed by immunoblotting (FIG. 2).
Peptides were prepared by varying the copy number of NLS, located following the 10 leucine amino acid sequences, to 2, 3, or 4, and specific sequences thereof are shown in Table 2 below (Peptides 1, 12, and 13). For each peptide, the change in GFP expression depending on the copy number of NLS was confirmed by immunoblotting (FIG. 3).
Accordingly, the copy number of NLS was set to 2, and a peptide (L10-2×NLS) in which the NLS amino acid sequence was located at the C-terminus, following leucine, and a peptide (2×NLS-L10) in which the NLS amino acid sequence was located at the N-terminus, preceding leucine, were prepared. Each of the above peptides (Peptide 1 and 14) was mixed with pEGFP-N3 and transfected into Jurkat T cells. Then, the expression changes of GFP were compared.
L10-2×NLS at different concentrations (2, 3, 4, 5, or 6 μM) was mixed with 2 μg of pEGFP-N3 and transfected into Jurkat T cells. The expression of GFP was then confirmed by immunoblotting (FIG. 5).
Next, pEGFP-N3 at different concentrations (0, 0.25, 0.5, 1, 2, 4, 5, or 6 μg) was mixed with 4 μM of L10-2×NLS and transfected into Jurkat T cells. The expression of GFP was then confirmed by immunoblotting (FIG. 6).
First, 4 μM L10-2×NLS and 2 μg pEGFP-N3 were mixed at 4, 16, 25, 37, or 42° C. for 30 minutes and transfected into Jurkat T cells for 30 minutes. […] (FIG. 7).
Thus, the temperature was set to 37° C., and 4 μM L10-2×NLS and 2 μg pEGFP-N3 were mixed for different times (10, 20, 30, 40, 50, or 60 minutes).
Finally, in an experiment as to the buffer used for the mixing, 4 μM of L10-2×NLS and 2 μg of pEGFP-N3 were mixed with Opti-MEM, DPBS, or Serum free RPMI-1640 (SF) buffer, respectively.
L10-2×NLS (4 μM) and pEGFP-N3 (2 μg) were mixed according to the above optimized conditions and transfected into Jurkat T cells for 0.5, 1, 2, 3, 4, or 5 hours to compare the changes in GFP expression over time (FIG. 10).
Background: In western blotting, separated proteins are transferred to a membrane and probed.

Data set [2] has as its system Jurkat T cells. In words: Cell morphology and viability (MTT assay) after transfection. The conditions noted are these: 4 μM L10-2×NLS, 2 μg pEGFP-N3, morphology after 24 hours. The procedure: L10-2×NLS (4 μM) and pEGFP-N3 (2 μg) were mixed and transfected into Jurkat T cells, and changes in cell morphology after 24 hours were observed (FIG. 14). The cell viability after transfection was analyzed using MTT assay (FIG. 15).

Data set [3] deals with Jurkat T cells. In words: Fluorescein-labeled plasmid DNA delivery efficiency by FACS. Conditions: after 0.5 hours; 2 μg fluorescein-labeled plasmid DNA, 4 μM L10-2×NLS. On the procedure: Fluorescein-labeled plasmid DNA (Takara) (2 μg) was mixed with L10-2×NLS (4 μM) and transfected into Jurkat T cells for 0.5, 1, 2, 3, 4, or 5 hours. Then, the delivery efficiency of the plasmid DNA into Jurkat T cells was analyzed using Novocyte FACS (Agilent) (FIG. 16).
(In general: In flow cytometry, cells or beads pass a laser one at a time.)

Data set [4] deals with Jurkat T cells. Put plainly: Location of fluorescein-labeled plasmid DNA by fluorescence microscope (Hoechst 33342). The text has this: Next, fluorescein-labeled plasmid DNA and L10-2×NLS were mixed and transfected into Jurkat T cells, followed by treatment with nucleus staining reagent Hoechst 33342 (ThermoFisher). The location of the plasmid DNA in Jurkat T cells was then confirmed using a fluorescence microscope (Leica) (FIG. 17), and the data were quantified and analyzed through graphical representation (FIG. 18).

Another data set has as its system human primary T cells. In words: CAR plasmid DNA delivery, CAR expression by immunoblotting with FLAG antibody. Conditions: 4 μM L10-2×NLS, 2 μg FLAG-tagged CAR plasmid DNA, after 24 hours. On the procedure:
L10-2×NLS (4 μM) and FLAG-tagged CAR plasmid DNA (2 μg) were mixed and transfected into human primary T cells. After 24 hours, CAR expression in the human primary CD8+ T cells was confirmed by immunoblotting using FLAG antibody (FIG. 19).

The test system of data set [5] is Jurkat T cells. Put plainly: FITC-labeled IgG antibody delivery efficiency by FACS. The conditions noted are these: L10-2×NLS 4 μM or higher, 1 μg FITC-labeled IgG, 2 hours. The procedure: FITC-labeled IgG (Thermofisher) (1 μg) was mixed with L10-2×NLS at different concentrations (0.5, 1, 2, 4, or 6 μM). Each mixture was treated with Jurkat T cells for 2 hours, and then the antibody delivery efficiency to cells was confirmed using Novocyte FACS (Agilent) (FIG. 21), and the presence of the corresponding antibodies in cells was observed using a fluorescence microscope (Leica) (FIG. 22).

Turning to “Ac-LLLLLLLLLLPKKKRKVPKKKRKV-NH2 [L10-2×NLS]”, the “transfection level compared to Lipofectamine” value with Jurkat T cells [1] (4 μM peptide, 2 μg pEGFP-N3, immunoblot after 24 hours) is given as “significantly higher level compared to Lipofectamine®”. In addition, the “GFP expression depending on hydrophobic amino acid type” value with Jurkat T cells [1] (4 μM peptide, 2 μg pEGFP-N3, mixed 30 min at 37° C., transfection 30 min, immunoblot after 24 hours, among Peptides 1 to 10) is “highest GFP expression”. In addition, in the data set with Jurkat T cells [1], the “GFP expression depending on copy number of NLS” value is “highest expression of GFP” and the “plasmid DNA delivery efficiency depending on leucine length” value is given as “highest efficiency”. Further, in the data set with Jurkat T cells [1] (L10-2×NLS compared with 2×NLS-L10), the “transformation efficiency depending on N-terminal/C-terminal location of NLS” value was “high efficiency”. Also, the “GFP expression depending on mixing buffer” value in the data set with Jurkat T cells [1] (Opti-MEM, DPBS or Serum free RPMI-1640) is reported as “transfection levels were maintained”. Also, the “GFP expression efficiency depending on pEGFP-N3 amount” value in the data set with Jurkat T cells [1] (at 2 μg pEGFP-N3 (tested 0-6 μg), 4 μM L10-2×NLS) is listed as “highest”. Further, the “GFP expression efficiency depending on L10-2×NLS concentration” value in the data set on Jurkat T cells [1] (at 4 μM (tested 2, 3, 4, 5, 6 μM), 2 μg pEGFP-N3) is reported as “highest expression efficiency of GFP”. The “GFP expression depending on mixing temperature” value with Jurkat T cells [1] (mixing at 37° C. (tested 4, 16, 25, 37, 42° C.) for 30 minutes) is “highest expression of GFP”. The “GFP expression depending on mixing time” value in the data set with Jurkat T cells [1] (mixing time 30 minutes (tested 10-60 minutes), 37° C.) was “highest expression level”. Moreover, the “GFP expression depending on transfection time” value with Jurkat T cells [1] (transfection for 0.5 or 1 hour (tested 0.5-5 hours)) was “sufficient to deliver plasmid DNA”. In the data set with Jurkat T cells [2], the “cell damage or cell death after transfection” value is “did not cause any damage or cell death”. Also, the “plasmid DNA delivery efficiency” value in the data set on Jurkat T cells [3] is “about 90%”. The “plasmid DNA delivery to cells” value in the data set on Jurkat T cells [4] (1 hour after transfection) is “delivered to the majority of cells”. Also, the “plasmid DNA found in the nucleus, efficiency” value in the data set with Jurkat T cells [4] (at 4 hours) is “approximately 40%”. Further, the “CAR expression in human primary CD8+ T cells” value in the data set with human primary T cells is reported as “confirmed”. Moreover, the antibody delivery efficiency result in the data set with Jurkat T cells [5] was “approximately 90%”.

For the substance “N′-LLLLLLLLLLPKKKRKVPKKKRKVPKKKRKV-C′ (Ac-LLLLLLLLLLPKKKRKVPKKKRKVPKKKRKV-NH2) [Peptide 12]”, in the data set on Jurkat T cells [1], the “GFP expression depending on copy number of NLS” value was “maintained above a certain level”.

“N′-LLLLLLLLLLPKKKRKVPKKKRKVPKKKRKVPKKKRKV-C′ (Ac-LLLLLLLLLLPKKKRKVPKKKRKVPKKKRKVPKKKRKV-NH2) [Peptide 13]”: the “GFP expression depending on copy number of NLS” value in the data set with Jurkat T cells [1] is on record as “maintained above a certain level”.

Turning to “N′-LLLLLLLLLLLPKKKRKVPKKKRKV-C′ (Ac-LLLLLLLLLLLPKKKRKVPKKKRKV-NH2) [Peptide 11]”, the “plasmid DNA delivery efficiency depending on leucine length” value in the data set on Jurkat T cells [1] is reported as “a certain level of high efficiency was maintained”.
